The source of these data is PMC8599628 (Journal of clinical pharmacology, 2021).

Data set [1] concerns CYP3A4/5. Conditions: cited from earlier work.
Data set [2] concerns CYP3A. Conditions: 25 mg RIL daily; cited from earlier work.
In data set [3] the test system is markers of immune activation. The conditions noted are these: 10 mg bid for 5 weeks, virologically suppressed HIV+ participants; cited from earlier work.
The conditions of data set [4]: cited from earlier work.
For data set [5] the following is noted: cited from earlier work. This is another data set of the same source.
The conditions of data set [6]: cited from earlier work. This is another data set of the same source.

Values joined by “and” are separate entries in the source; they are usually repeats but may differ in a detail not shown here. Identical values can stand only once. Like-named read-outs stand apart in the source and are kept apart here.

For the compound `O=C1Nc2ccc(Cl)cc2[C@@](C#CC2CC2)(C(F)(F)F)O1` [EFV, efavirenz], the “median increase in plasma 4β-OHCC/cholesterol ratio” value in data set [1] (4th week after initiation of ART with EFV) was 257%; in data set [1] (16th week after initiation of ART with EFV), 291%; in data set [1] (48th week after initiation of ART with EFV), 165%.
With `Cc1cc(/C=C/C#N)cc(C)c1Nc1ccnc(Nc2ccc(C#N)cc2)n1` [RIL, rilpivirine], the “effect on CYP3A-dependent drug metabolism” value in data set [2] is recorded as “did not alter”.
In the case of `N#CC[C@H](C1CCCC1)n1cc(-c2ncnc3[nH]ccc23)cn1` [ruxolitinib], in data set [3], the “markers of immune activation” value was “significantly decreased”. In addition, the “CL/F typical value (with EFV)” value (Model IV (separated CL/F by EFV status), participants administered ART with EFV (N = 14)) was 22.5 L/h and 21.2 L/h. Further, the “IIV V1 ω^2” value (both, human, in vivo) is 0.0607. The “IOV F ω^2” value reads like this: (both, human, in vivo) 0.0669; (both, human, in vivo, po) 0.0567. Further, under “co-administered RIL/FTC/TAF (N = 3) or RIL/FTC/TDF (N = 1)”, the “ruxolitinib CL/F with co-administered RIL regimens” value is reported as “not increased”. Also, the “median post hoc estimated CL/F” value reads like this: (men, wk1) 16.0 L/h; (men, wk4/5) 14.3 L/h; (women, wk1) 15.2 L/h; (women, wk4/5) 13.6 L/h. In addition, the “geometric mean CL/F (post hoc, Model IV)” value is 22.3 L/h (wk1, EFV/FTC/TDF group); 13.8 L/h (wk1, INSTI group); 20.8 L/h (wk4/5, EFV/FTC/TDF group); 12.7 L/h (wk4/5, INSTI group). The “mean post hoc predicted CL/F” value runs as follows: (wk1, N = 39) 16.6 L/h; (wk4/5, N = 37) 15.7 L/h. Besides, the “reduction of ruxolitinib CL/F” value in data set [4] (10 mg ruxolitinib tablet with 200 mg bid ketoconazole, N = 16) was 91%; in data set [4] (10 mg ruxolitinib tablet with 500 mg erythromycin, N = 15) it was 21%. Further, the “increase in ruxolitinib CL/F” value in data set [4] (30 mg ruxolitinib tablet before and after 10 days of 600 mg rifampin, healthy participants N = 12) was 71%. The orally absorbed in data set [5] was above 95%. Further, the “IIV Ka” value in data set [6] is 75%. Also, the “IIV V1” value in data set [6] was 28%. The “IIV V2/F” value in data set [6] was 102%. In addition, the V2 in data set [6] is 11.2 L. The “IIV CL/F” value in data set [6] (myelofibrosis patients) is recorded as 39.1%. For the same compound, the V1 in data set [6] (normalized to a mean body weight of 72.9 kg) is 58.6 L.
